Data from patent US10634663B2, “Determination of binding constants by means of equilibrium shifting” (Sovicell GmbH, priority 2014, dated 2020).

Test system: Human plasma
Test: Equilibrium shifting: dissociation constant for soluble target and fraction bound to whole human plasma
Description: Determination of the affinity or dissociation constants is carried out in an advantageous embodiment according to equation I:
[formula] wherein a plurality of binding constant values for KD^H and KD^P are first inserted into the equation and the respective APA concentrations to be expected for these values are calculated. The calculated APA concentrations are then compared with the measured APA concentration. In a further step, the smallest deviation between the calculated APA concentration and the measured APA concentration is determined by means of a numerical optimization method, preferably the “least squares” optimization method, and the formula γ=(APAmeasured−APAcalculated)^2. The lowest value for the deviation is selected from these deviations. […]
10 μL each of a 10 to 2000 μM stock solution of the test substances is added to the cavities. […] The concentration in the supernatant is determined by means of suitable methods, such as LC/MS/MS or scintillation counting. The unbound fraction of the substance is determined in cavities with the immobilized target relative to the reference samples. This obviates the need for calibration, as long as the signal to concentration ratio for the test substances and the quantitation system used follow a linear course. […]

## CCCCCCCCCCCCCCCC(=O)N[C@@H](CCC(=O)NCCCC[C@H](NC(=O)[C@H](C)NC(=O)[C@H](C)NC(=O)[C@H](CCC(N)=O)NC(=O)CNC(=O)[C@H](CCC(=O)O)NC(=O)[C@H](CC(C)C)NC(=O)[C@H](Cc1ccc(O)cc1)NC(=O)[C@H](CO)NC(=O)[C@H](CO)NC(=O)[C@@H](NC(=O)[C@H](CC(=O)O)NC(=O)[C@H](CO)NC(=O)[C@@H](NC(=O)[C@H](Cc1ccccc1)NC(=O)[C@@H](NC(=O)CNC(=O)[C@H](CCC(=O)O)NC(=O)[C@H](C)NC(=O)[C@@H](N)Cc1cnc[nH]1)[C@@H](C)O)[C@@H](C)O)C(C)C)C(=O)N[C@@H](CCC(=O)O)C(=O)N[C@@H](Cc1ccccc1)C(=O)N[C@H](C(=O)N[C@@H](C)C(=O)N[C@@H](Cc1c[nH]c2ccccc12)C(=O)N[C@@H](CC(C)C)C(=O)N[C@H](C(=O)N[C@@H](CCCNC(=N)N)C(=O)NCC(=O)N[C@@H](CCCNC(=N)N)C(=O)NCC(=O)O)C(C)C)[C@@H](C)CC)C(=O)O [liraglutide]
Calculated from KD^P and [P] 600 μM
  fraction of the peptide bound to whole human plasma (undiluted): 98.8%
Whole human plasma (undiluted)
  peptide dissolved in the plasma in free, or unbound, form: 1.2%
